{"source": "paper PMC10386196", "about": "“A First-Class Degrader Candidate Targeting Both KRAS G12D and G12V Mediated by CANDDY Technology Independent of Ubiquitination” (Molecules, 2023)", "key": {"[1]": {"target": "proteasome β5 (Homo sapiens, UniProt P28074)", "test": "Inhibition of proteasome β5 (chymotrypsin-like) activity, Suc-LLVY-AMC substrate", "format": "biochemical", "details": "SE in parentheses, n = 2", "procedure": "(§1) Reaction time (min) Reaction time (min)\n(§2) Figure S1. Proteasome Inhibitors Modified as Degradation Tags, Related to Figures 2\n(§3) (A) Chymotrypsin-like (β5) , trypsin-like (β2) and caspase-like (β1) activities of the pr oteasome were monitor ed by Suc- LLVY-\n(§4) AMC (β5 substrate) , Bz- VGR-AMC (β2 substr ate) and Z -LLE-AMC (β1 substrate), respectively. AMC fluorescence was\n(§5) m onitor ed by a plate reader with excitation and emission filter s of 360 nm and 460 nm, respectively (DMSO, 30 min = 1) […]"}, "[2]": {"target": "proteasome β2 (Homo sapiens, UniProt Q99436)", "test": "Inhibition of proteasome β2 (trypsin-like) activity, Bz-VGR-AMC substrate", "format": "biochemical", "details": "SE in parentheses, n = 2", "procedure": "as §1, §2, §3, §4, §5"}, "[3]": {"target": "proteasome β1 (Homo sapiens, UniProt P28072)", "test": "Inhibition of proteasome β1 (caspase-like) activity, Z-LLE-AMC substrate", "format": "biochemical", "details": "SE in parentheses, n = 2", "procedure": "as §1, §2, §3, §4, §5"}, "[4]": {"target": "T1, KRAS G12D (Homo sapiens, UniProt P01116, G12D)", "test": "KRAS degradation in a cell-free system with 26S proteasome", "format": "biochemical", "details": "only 26S proteasome and target protein, 3 h at 37 °C", "procedure": "KRAS G12D (final concentration: 5 ng/µL) and 26S proteasome (final concentration: 8 nM) were incubated with TUS-007 (10, 20, 40 µM), RAS-SOS inhibitor (40 µM), RAS-SOS-NH2 (40 µM), or DMSO in 20 mM Tris-HCl buffer (pH 7.5) containing 20% glycerol for 3 h at 37 °C. To assess the effect of MLN on chemical knockdown, KRAS G12D and 26S proteasome were incubated with DMSO or TUS-007 40 µM in the presence or absence of MLN (1 µM) in the same condition. After centrifugation at 14,000× g for 10 min, the supernatants were analyzed via SDS-PAGE, followed by immunoblotting using an anti-KRAS antibody (1:1000, WH0003845MI, Sigma-Aldrich)."}, "[5]": {"test": "Solubility (statement in words)", "format": "physicochemical", "details": "reason not used as in vivo control"}, "[6]": {"target": "KRAS G12D", "parameters": "method as in PMID 22566140", "details": "cited from earlier work"}, "[7]": {"target": "T2, ecDHFR (Escherichia coli, UniProt P0ABQ4)", "T2 construct": "expressed in transfected cells; host or cells: HeLa cells (bicistronic construct co-expressing DsRed)", "test": "Cellular thermal shift assay (CETSA) for ecDHFR in HeLa cells", "format": "binding", "details": "ecDHFR-HA-GFP-expressing HeLa cells, 3 h treatment", "procedure": "Figure 2 Proof of principle for the CANDDY Strategy. (A) Structures of degraders 1–3 constructed with TMP and each degradation tag (CANDDY_MLN, CANDDY_ALLN, or CANDDY_BTZ). (B) Comparison of proteasomal inhibitory activity of b2 by 1–3 and each proteasome inhibitor. […] Cell extraction was treated with heat for 3 min and then analyzed via immunoblotting. (D) Degradation rates of ecDHFR by 1–3. The same procedure as in (E) was performed except for 24 h. (E) ecDHFR degradation by 1 for 24 h. The ratio of ecDHFR-HA-GFP/DsRed was detected via flow cytometry."}, "[8]": {"target": "T3, KRAS G12V (Homo sapiens, UniProt P01116, G12V)", "T3 construct": "expressed in transfected cells; host or cells: HeLa cells", "T3 sequence (P01116 1-188 isoform P01116-2 G12V)": "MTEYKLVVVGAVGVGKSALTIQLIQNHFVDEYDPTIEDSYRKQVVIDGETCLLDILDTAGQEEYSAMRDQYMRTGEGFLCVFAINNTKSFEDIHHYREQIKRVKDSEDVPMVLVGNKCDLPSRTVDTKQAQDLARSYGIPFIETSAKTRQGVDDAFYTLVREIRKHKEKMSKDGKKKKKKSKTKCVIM", "test": "KRAS G12V-HA-GFP degradation in HeLa cells", "format": "cell-based", "details": "exogenously expressed, flow cytometry and immunoblotting", "procedure": "(§6) Figure 3 RAS Chemical Knockdown in vitro. (A) Structures of RAS-SOS inhibitor (4), RAS-SOS-NH2 (5), and TUS-007 as a RAS degrader. (B,C) Assessing the binding affinity of TUS-007 to targets KRAS (G12D, G12V, or wild-type) (B) and proteasome β5 (C) using CETSA. Recombinant KRAS or PSMB5 was treated with vehicle, 4, or TUS-007 for 30 min. The mixture was treated with heat and then analyzed via immunoblotting. […] KRAS-HA-GFP and DsRed-expressing HeLa cells were treated and analyzed via immunoblotting. (F) The same procedure was performed as in (D) (mean ± SEM; n = 3) except for 48 h. (G) Ubiquitination-independent proteasomal KRAS G12D degradation. KRAS G12D-HA-GFP and DsRed-expressing HeLa cells were co-treated with TUS-007 and the NAE inhibitor ([…], […]) or PYR-41 (E1 inhibitor, […]) and then analyzed via flow cytometry. […]\n(§7) β5 activity β2 activity β1 activity […]\n(§8) Figure S3. Proteasomal Inhibitory Activities of TUS-007 and Degradation of KRAS by TUS-007, Related to Figure 3 […]\n(§9) Degradation of mutant (G12D and G12V) and wild- type KRAS pr oteins by TUS- 007 was rescued by treatment with the proteasome inhibitor M LN2238 ([…]). […] KRAS G12D-HA-GFP and DsRed-expressing HeLa cells were co-treated with TUS-007 and 17-AAG (HSP90 inhibitor, 2 ∝M), or VER-155008 (HSP70 inhibitor , 2 ∝M) for 24 h and then analyzed by flow cytometry."}, "[9]": {"target": "T4, wild-type KRAS (Homo sapiens, UniProt P01116)", "T4 construct": "expressed in transfected cells; host or cells: HeLa cells", "T4 sequence (P01116 1-188 isoform P01116-2)": "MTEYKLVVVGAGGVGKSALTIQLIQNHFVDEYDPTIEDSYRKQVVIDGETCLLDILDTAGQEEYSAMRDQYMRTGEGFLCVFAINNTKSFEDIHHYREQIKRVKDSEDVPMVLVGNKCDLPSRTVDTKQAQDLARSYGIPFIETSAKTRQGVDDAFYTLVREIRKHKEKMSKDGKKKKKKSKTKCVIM", "test": "Wild-type KRAS-HA-GFP degradation in HeLa cells", "format": "cell-based", "details": "exogenously expressed, flow cytometry and immunoblotting", "procedure": "as §6, §7, §8, §9"}, "[10]": {"target": "T1, KRAS G12D", "test": "KRAS G12D-HA-GFP degradation in HeLa cells", "format": "cell-based", "parameters": "expressed in transfected cells; host or cells: HeLa cells", "details": "exogenously expressed, flow cytometry and immunoblotting", "procedure": "as §6, §7, §8, §9"}, "[11]": {"target": "β5/β2/β1 of the proteasome (Homo sapiens, UniProt P28072+P28074+Q99436)", "test": "Proteasomal inhibitory activity, stated in words for all subunits", "format": "biochemical", "details": "listed as TMP-CANDDY_MLN (1)", "procedure": "as §1, §2, §3, §4, §5"}, "[12]": {"target": "T2, ecDHFR", "format": "cell-based", "description": "Cell extraction was treated with heat for 3 min and then analyzed via immunoblotting. […] The same procedure as in (E) was performed except for 24 h. […] The ratio of ecDHFR-HA-GFP/DsRed was detected via flow cytometry.\nHeLa cells co-expressed ecDHF R- HA-GF P and DsRed from a bicistronic construct.\n(C) HeLa cells co-expressed ecDHFR-HA-GFP and DsRed from a bicistronic construct. Target-expressing HeLa cells were\ntreated with a CANDDY molecule (1)."}}, "note": "Square brackets hold non-standard residues; d marks the D form. Peptide text beside a SMILES is read from it. Nle = CCCC[C@H](N)C(=O)O"}
{"smiles": "CCCC[C@@H](C=O)NC(=O)[C@H](CC(C)C)NC(=O)[C@H](CC(C)C)NC(C)=O", "note": "[ALLN, reference compound] (Ac-Leu-Leu-[Nle]-aldehyde)", "values": [{"measurement": "IC50", "setting": "[1]", "value": 1, "unit": "µM"}, {"measurement": "IC50", "setting": "[2]", "value": 4.3, "unit": "µM"}, {"measurement": "IC50", "setting": "[3]", "value": 9.8, "unit": "µM"}]}
{"smiles": "CC[C@H](C)[C@H](N)C(=O)Nc1ccc2nc(Cc3c[nH]c4ccccc34)[nH]c2c1", "note": "[compound 4, reference compound]", "values": [{"measurement": "degradation of KRAS G12D in cell-free system", "setting": "[4]", "value": "not"}, {"measurement": "solubility", "setting": "[5]", "value": "low solubility"}, {"measurement": "Kd", "setting": "[6]", "value": 190, "unit": "µM"}]}
{"smiles": "COc1cc(Cc2cnc(N)nc2N)cc(OC)c1OCC(=O)NCCCCCCNC(=O)[C@H](CC(C)C)NC(=O)[C@H](Cc1ccccc1)NC(=O)c1cnccn1", "note": "[compound 3]", "values": [{"measurement": "IC50", "setting": "[1]", "value": "> 160", "unit": "µM"}, {"measurement": "IC50", "setting": "[2]", "value": "> 160", "unit": "µM"}, {"measurement": "IC50", "setting": "[3]", "value": "> 160", "unit": "µM"}, {"measurement": "target affinity for ecDHFR compared with TMP (CETSA)", "setting": "[7]", "value": "lower"}]}
{"smiles": "CC[C@H](C)[C@H](NC(=O)CCCCCCN)C(=O)Nc1ccc2[nH]c(Cc3c[nH]c4ccccc34)nc2c1", "note": "[compound 5]", "values": [{"measurement": "degradation of KRAS G12D in cell-free system", "setting": "[4]", "value": "not"}, {"measurement": "KRAS G12V degradation in HeLa cells", "setting": "[8]", "value": "no degradation"}, {"measurement": "wild-type KRAS degradation in HeLa cells", "setting": "[9]", "value": "no degradation"}, {"measurement": "solubility", "setting": "[5]", "value": "low solubility"}, {"measurement": "KRAS G12D degradation in HeLa cells", "setting": "[10]", "value": "no degradation"}]}
{"smiles": "COc1cc(Cc2cnc(N)nc2N)cc(OC)c1OCC(=O)NCCCCCCNC(=O)[C@H](CC(C)C)NC(=O)CNC(=O)c1cc(Cl)ccc1Cl", "note": "[compound 1]", "values": [{"measurement": "IC50", "setting": "[1]", "value": "> 160", "unit": "µM"}, {"measurement": "IC50", "setting": "[2]", "value": "> 160", "unit": "µM"}, {"measurement": "IC50", "setting": "[3]", "value": "> 160", "unit": "µM"}, {"measurement": "proteasomal inhibitory activity (β5, β2, β1)", "setting": "[11]", "value": "almost no proteasomal inhibitory activity"}, {"measurement": "target affinity for ecDHFR compared with TMP (CETSA)", "setting": "[7]", "value": "more efficient"}, {"measurement": "ecDHFR degradation", "setting": "[12]; HeLa cells, 24 h, immunoblotting and flow cytometry (GFP/DsRed)", "value": "highest target degradation efficiency"}, {"measurement": "time dependence of ecDHFR degradation", "setting": "[12]; HeLa cells, flow cytometry", "value": "time-dependent ecDHFR degradation"}, {"measurement": "ecDHFR degradation on co-treatment with inhibitors of E1 or E3", "setting": "[12]; co-treatment with NAE inhibitor (E3) or PYR-41 (E1), flow cytometry", "value": "did not inhibit ecDHFR degradation"}]}
{"smiles": "CCCC[C@H](NC(=O)[C@H](CC(C)C)NC(=O)[C@H](CC(C)C)NC(C)=O)C(=O)NCCCCCCNC(=O)COc1c(OC)cc(Cc2cnc(N)nc2N)cc1OC", "note": "[compound 2]", "values": [{"measurement": "IC50", "setting": "[1]", "value": 46.2, "unit": "µM"}, {"measurement": "IC50", "setting": "[2]", "value": "> 160", "unit": "µM"}, {"measurement": "IC50", "setting": "[3]", "value": "> 160", "unit": "µM"}, {"measurement": "target affinity for ecDHFR compared with TMP (CETSA)", "setting": "[7]", "value": "more efficient"}]}
{"smiles": "CC(C)C[C@H](NC(=O)CNC(=O)c1cc(Cl)ccc1Cl)B(O)O", "note": "[MLN2238, reference compound]", "values": [{"measurement": "IC50", "setting": "[2]", "value": 8.9, "unit": "µM"}, {"measurement": "IC50", "setting": "[3]", "value": 0.029, "unit": "µM"}]}
